Biological target: T1, AtCKA1 (Arabidopsis thaliana, UniProt Q08467)
T1 sequence (Q08467 76-409): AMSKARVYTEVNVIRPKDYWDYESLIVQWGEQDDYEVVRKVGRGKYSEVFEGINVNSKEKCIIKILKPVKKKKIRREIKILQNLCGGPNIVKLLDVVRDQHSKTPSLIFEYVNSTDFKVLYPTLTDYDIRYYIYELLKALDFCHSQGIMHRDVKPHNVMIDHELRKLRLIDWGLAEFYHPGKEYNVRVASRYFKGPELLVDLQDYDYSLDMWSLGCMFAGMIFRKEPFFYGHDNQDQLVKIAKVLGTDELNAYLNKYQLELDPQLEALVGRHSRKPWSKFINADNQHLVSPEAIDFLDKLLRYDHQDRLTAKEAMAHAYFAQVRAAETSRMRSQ
Assay: biochemical

Compound: O=P(O)(O)O[C@H]1[C@H](OP(=O)(O)O)[C@@H](OP(=O)(O)O)[C@H](OP(=O)(O)O)[C@@H](OP(=O)(O)O)[C@H]1OP(=O)(O)O [InsP6]
- Kd: 2000 nM
